This is an account of results in publication PMC1716192, “A Plant-Derived Morphinan as a Novel Lead Compound Active against Malaria Liver Stages” (PLoS Medicine, 2006).

Where two headings read alike, the source gives them in different places.

Holding throughout (format): cell-based
In series [1] the test system is P. yoelii (265 BY strain) hepatic stages. Kind of series: In vitro assay for P. yoelii liver stage inhibition in primary mouse hepatocytes. How it is done: (§1) P. yoelii (265 BY strain) and P. falciparum (NF 54 strain) sporozoites were obtained by dissection of infected Anopheles stephensi salivary glands. Primary mouse hepatocytes were isolated as previously described and seeded in eight-well Lab-Tek plastic chamber slides (VWR, Fontenay-sous-Bois, France) previously coated with rat-tail collagen I (BD Biosciences, Le Pont de Claix, France) at a density of 10^5 cells per well. Mouse hepatocytes were cultured at 37 °C in 5% CO2 in William's E medium supplemented with 10% fetal calf serum, 1% L-glutamine, 1% sodium pyruvate, 1% insulin-transferrin-selenium, 1% nonessential amino acids, and 1% penicillin-streptomycin (all from Invitrogen, Cergy-Pontoise, France), for 24 h before inoculation of P. yoelii sporozoites (10^5 per well). Human liver fragments were collected following informed consent provided from patients undergoing a partial hepatectomy. The collection and use of these tissues were undertaken in accordance with French Government ethical regulations. Primary human hepatocytes were isolated from the healthy parts of these liver biopsies as previously described. Human hepatocytes were seeded in LabTek plastic chamber slides coated with collagen, at a density of 1.8 × 10^5 cells per well and cultured at 37 °C in 5% CO2 in the same medium as above, supplemented with 10^−7 M dexamethasone (Sigma) and 2% DMSO after complete cell adherence (12–24 h), for at least 48 h before inoculation of P. falciparum sporozoites (10^5 per well). For a standard assay, the plant extract, the purified compound, or primaquine was solubilized in DMSO, further diluted in culture medium (equal DMSO concentrations of <0.3% per well), and then added to hepatocyte cultures at the time of sporozoite inoculation. Three hours later, after sporozoite penetration into hepatocytes, cultures were washed and further incubated in the presence of the drug. Culture medium containing the appropriate drug concentration was changed daily until 48 h for P. yoelii, or until 5 d for P. falciparum. Parasites were quantified on the last day of incubation. For the in vitro timing experiments, tazopsine treatment of P. yoelii and P. falciparum cultures was undertaken for different periods during the cultivation: 0 h to 3 h, 3 h to 24 h, or 24 h to 48 h after P. yoelii sporozoite inoculation (quantification at 48 h), or 0 h to 2 d, or 3 d to 5 d after P. falciparum sporozoite inoculation (quantification at 5 d). […] Cells were stained with Evans Blue (0.4%), and parasites and cells nuclei were stained with 1 μg/ml of diamidino-phenylindole (DAPI; Sigma). Parasite numbers were counted under a fluorescence microscope with a 25× light microscope objective.
(§2) IC50 and TC50 were calculated by nonlinear regression using four-parameter logistic curves on the SigmaPlot 10.0 software (http://www.systat.com). Each IC50 or TC50 is expressed as a mean between two independent experiments, followed by the standard error of the mean.

Series [2] concerns P. falciparum (NF 54 strain) hepatic stages. Briefly: In vitro assay for P. falciparum liver stage inhibition in primary human hepatocytes. Conditions: P. falciparum hepatic stages in primary human hepatocytes; for IC50: quantified at 5 d, read-out: IC50. As for the experimental part:
as §1, with “objective. IC50 values, the drug concentration at which a 50% reduction in the number of parasites was observed, as compared to the number in the DMSO control cultures, were derived from two independent experiments in which each concentration was tested in triplicate wells.” for “objective.”
as §2

The subject of series [3] is primary mouse hepatocytes. Kind of series: In vitro assay for cell viability (neutral red), mouse hepatocytes. Conditions: 48 h drug exposure. How it is done:
(§3) Primary hepatocytes of mice or humans were prepared as above and seeded in 96-well plates coated with collagen, at a density of 5 × 10^4 and 7 × 10^4 cells per well, respectively. Drugs were added to the culture medium, which was changed daily after 24 h or 48 h of incubation for mouse and human hepatocytes, respectively. After 48 h of drug exposure (mouse hepatocytes) or 5 d (human hepatocytes), 50 μl of neutral red (Sigma) at 0.02% in phosphate-buffered saline (PBS) were added per well and incubated for 24 additional hours. Cultures were then washed with PBS and the neutral red extracted with 1% SDS from viable cells and quantified by measuring the OD540 on a microplate autoreader photometer (BioTek Instruments, Winooski, Vermont, United States).
as §2

For series [4], the system named is primary human hepatocytes. Briefly: In vitro assay for cell viability (neutral red), human hepatocytes. Conditions: 5 d drug exposure. How it is done: as §3, §2
Setting [5] is: Plasmodium yoelii, Hepatocyte, 48 h.

For the molecule `COc1cc(NC(C)CCCN)c2ncccc2c1` (stereo not shown) [Primaquine, reference compound], the IC50 in series [1] (P. yoelii hepatic stages in primary mouse hepatocytes, quantified at 48 h, read-out: IC50) is 0.64 ± 0.1 µM; in series [1] (Plasmodium yoelii, Hepatocyte, 48 h, P. yoelii hepatic stages in primary mouse hepatocytes, quantified at 48 h, read-out: IC50), roughly 1 µM; in series [2] it was 0.8 ± 0.9 µM; in series [2] (Plasmodium falciparum, Hepatocyte, 120 h), roughly 1 µM. Also, the IC90 in series [1] (Plasmodium yoelii, Hepatocyte, P. yoelii hepatic stages in primary mouse hepatocytes, 48 h, read-out: IC90) was greater than 30 µM; in series [2] (Plasmodium falciparum, Hepatocyte, 120 h, 5 d, read-out: IC90), 4.1 ± 0.5 µM. The TC50 in series [3] came out at 70.5 ± 4.3 µM; in series [4], 65.2 ± 11.9 µM.

In series [1] (setting [5]), `COc1ccc2c3c1O[C@H]1[C@@H](O)C=C[C@H]4[C@@H](C2)N(C)CC[C@@]341` [codeine, reference compound] yielded a half-maximal inhibitory concentration (IC50) greater than 100 µM.

Consider `COC1=CC=C2[C@H]3Cc4ccc(OC)c5c4[C@@]2(CCN3C)[C@H]1O5` [thebaine, reference compound], for which, in series [1] (setting [5]), the 50% inhibitory concentration (IC50) is greater than 100 µM.
